# System: ATPase activity endogenous to L929 cell lysate
# Assay: Detergent inhibition of ATPase endogenous to L929 cell lysate (ATP remaining by luciferase luminescence, 22° C.)
# Assay type: biochemical
# Set-up: key to Relative ATPase Activity, slope det/slope lysate: slope with detergent / slope without; ≥1.0 = 100% activity, 0.5 = 50%
# Conditions: for concentrations which resulted in a 25% or greater decrease in the relative ATPase activity: compared to reactions in the absence of detergent
# Outline: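 L929 lysate (1.5×10^5 cells/ml, four freeze–thaw cycles) held with detergent at final 1.0, 0.5, 0.1 or 0.05% at 22° C; remaining ATP read over time with luciferase-luciferin reagent (100 μM luciferin, 10 mM MgSO4, pH 7.5). Relative ATPase activity = slope of log % ATP remaining vs time with detergent ÷ slope for lysate-only control.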
# [1] = 0.50 percent detergent, second 0.50 line of DTAB (assayed on two days)
# [2] = Example 2, 0.02% detergent, 5 min
# [3] = Example 2, 0.02% detergent, 75 min
# [4] = Example 2, 0.02% detergent, 169 min
# [5] = Example 2, 0.02% detergent, 222 min
# [6] = Example 2, 0.02% detergent, 260 min
# [7] = Example 2, 0.5% detergent, 5 min
# [8] = Example 2, 0.5% detergent, 75 min
# [9] = Example 2, 0.5% detergent, 169 min
# [10] = Example 2, 0.5% detergent, 222 min
# [11] = Example 2, 0.5% detergent, 260 min
structure (smiles),measurement,setting,value
"CCCCCCCCCCCC[N+](C)(C)C.[Br-] [DTAB, dodecyltrimethylammonium bromide]","Relative ATPase Activity, slope det/slope lysate",0.02 percent detergent,0.884
same,Slope (log percent ATP remaining vs time in minutes),0.02 percent detergent,−0.0056
same,Average Relative Light Unit Values,"0.05% detergent, 5 min",6487.93 rlu
same,Percent ATP Remaining,"0.05% detergent, 5 min",100%
same,Average Relative Light Unit Values,"0.05% detergent, 75 min",3138.81 rlu
same,Percent ATP Remaining,"0.05% detergent, 75 min",48.4%
same,Average Relative Light Unit Values,"0.05% detergent, 169 min",1496.01 rlu
same,Percent ATP Remaining,"0.05% detergent, 169 min",23.1%
same,Average Relative Light Unit Values,"0.05% detergent, 222 min",943.40 rlu
same,Percent ATP Remaining,"0.05% detergent, 222 min",14.5%
same,Average Relative Light Unit Values,"0.05% detergent, 260 min",638.30 rlu
same,Percent ATP Remaining,"0.05% detergent, 260 min",9.8%
same,"Relative ATPase Activity, slope det/slope lysate",0.05 percent detergent,0.690
same,Slope (log percent ATP remaining vs time in minutes),0.05 percent detergent,−0.0039
same,Average Relative Light Unit Values,"0.1% detergent, 5 min",6991.01 rlu
same,Percent ATP Remaining,"0.1% detergent, 5 min",100%
same,Average Relative Light Unit Values,"0.1% detergent, 75 min",4753.46 rlu
same,Percent ATP Remaining,"0.1% detergent, 75 min",68.0%
same,Average Relative Light Unit Values,"0.1% detergent, 169 min",2737.36 rlu
same,Percent ATP Remaining,"0.1% detergent, 169 min",39.2%
same,Average Relative Light Unit Values,"0.1% detergent, 222 min",1950.95 rlu
same,Percent ATP Remaining,"0.1% detergent, 222 min",27.9%
same,Average Relative Light Unit Values,"0.1% detergent, 260 min",1408.18 rlu
same,Percent ATP Remaining,"0.1% detergent, 260 min",20.1%
same,"Relative ATPase Activity, slope det/slope lysate",0.10 percent detergent,0.480
same,Slope (log percent ATP remaining vs time in minutes),0.10 percent detergent,−0.0027
same,Percent ATP Remaining,"0.5% (1), 5 min",100%
same,Percent ATP Remaining,"0.5% (1), 75 min",90.6%
same,Percent ATP Remaining,"0.5% (1), 169 min",88.0%
same,Percent ATP Remaining,"0.5% (1), 222 min",87.3%
same,Percent ATP Remaining,"0.5% (1), 260 min",80.2%
same,Percent ATP Remaining,"0.5% (2), 5 min",100%
same,Percent ATP Remaining,"0.5% (2), 75 min",95.8%
same,Percent ATP Remaining,"0.5% (2), 169 min",90.3%
same,Percent ATP Remaining,"0.5% (2), 222 min",88.0%
same,Percent ATP Remaining,"0.5% (2), 260 min",85.0%
same,Average Relative Light Unit Values,"0.5% (day 1), 5 min",5630.61 rlu
same,Average Relative Light Unit Values,"0.5% (day 1), 75 min",5100.09 rlu
same,Average Relative Light Unit Values,"0.5% (day 1), 169 min",4957.48 rlu
same,Average Relative Light Unit Values,"0.5% (day 1), 222 min",4916.46 rlu
same,Average Relative Light Unit Values,"0.5% (day 1), 260 min",4515.20 rlu
same,Average Relative Light Unit Values,"0.5% (day 2), 5 min",6617.08 rlu
same,Average Relative Light Unit Values,"0.5% (day 2), 75 min",6341.09 rlu
same,Average Relative Light Unit Values,"0.5% (day 2), 169 min",5977.33 rlu
same,Average Relative Light Unit Values,"0.5% (day 2), 222 min",5824.18 rlu
same,Average Relative Light Unit Values,"0.5% (day 2), 260 min",5622.12 rlu
same,"Relative ATPase Activity, slope det/slope lysate",0.50 percent detergent,0.055
same,Slope (log percent ATP remaining vs time in minutes),0.50 percent detergent,−0.0003
same,"Relative ATPase Activity, slope det/slope lysate",[1],0.048
same,Slope (log percent ATP remaining vs time in minutes),[1],−0.0003
same,Average Relative Light Unit Values,"1.0% detergent, 5 min",800.61 rlu
same,Percent ATP Remaining,"1.0% detergent, 5 min",100%
same,Average Relative Light Unit Values,"1.0% detergent, 75 min",693.13 rlu
same,Percent ATP Remaining,"1.0% detergent, 75 min",86.6%
same,Average Relative Light Unit Values,"1.0% detergent, 169 min",649.41 rlu
same,Percent ATP Remaining,"1.0% detergent, 169 min",81.1%
same,Average Relative Light Unit Values,"1.0% detergent, 222 min",671.03 rlu
same,Percent ATP Remaining,"1.0% detergent, 222 min",83.8%
same,Average Relative Light Unit Values,"1.0% detergent, 260 min",645.40 rlu
same,Percent ATP Remaining,"1.0% detergent, 260 min",80.6%
same,"Relative ATPase Activity, slope det/slope lysate",1.00 percent detergent,0.057
same,Slope (log percent ATP remaining vs time in minutes),1.00 percent detergent,−0.0003
same,Average Relative Light Unit Values,[2],5870.43 rlu
same,Percent ATP Remaining,[2],100.00%
same,Average Relative Light Unit Values,[3],1997.09 rlu
same,Percent ATP Remaining,[3],34.02%
same,Average Relative Light Unit Values,[4],435.05 rlu
same,Percent ATP Remaining,[4],7.41%
same,Average Relative Light Unit Values,[5],329.83 rlu
same,Percent ATP Remaining,[5],5.62%
same,Average Relative Light Unit Values,[6],227.72 rlu
same,Percent ATP Remaining,[6],3.88%
same,Average Relative Light Unit Values,[7],5189.8 rlu
same,Percent ATP Remaining,[7],100.00%
same,Average Relative Light Unit Values,[8],4564.65 rlu
same,Percent ATP Remaining,[8],87.95%
same,Average Relative Light Unit Values,[9],4111.89 rlu
same,Percent ATP Remaining,[9],79.23%
same,Average Relative Light Unit Values,[10],4230.51 rlu
same,Percent ATP Remaining,[10],81.52%
same,Average Relative Light Unit Values,[11],4267.32 rlu
same,Percent ATP Remaining,[11],82.23%
same,concentrations which resulted in a 25% or greater decrease in the relative ATPase activity,,≥ 0.05%
"C[C@H](CCC(=O)[O-])[C@H]1CC[C@H]2[C@@H]3CC[C@@H]4C[C@H](O)CC[C@]4(C)[C@H]3C[C@H](O)[C@]12C.[Na+] [Deoxycholate, sodium deoxycholate]","Relative ATPase Activity, slope det/slope lysate",0.02 percent detergent,1.004
same,Slope (log percent ATP remaining vs time in minutes),0.02 percent detergent,−0.0064
same,Average Relative Light Unit Values,"0.05% detergent, 5 min",5810.85 rlu
same,Percent ATP Remaining,"0.05% detergent, 5 min",100%
same,Average Relative Light Unit Values,"0.05% detergent, 75 min",1729.95 rlu
same,Percent ATP Remaining,"0.05% detergent, 75 min",29.8%
same,Average Relative Light Unit Values,"0.05% detergent, 169 min",738.1 rlu
same,Percent ATP Remaining,"0.05% detergent, 169 min",12.7%
same,Average Relative Light Unit Values,"0.05% detergent, 222 min",375.74 rlu
same,Percent ATP Remaining,"0.05% detergent, 222 min",6.5%
same,Average Relative Light Unit Values,"0.05% detergent, 260 min",188.59 rlu
same,Percent ATP Remaining,"0.05% detergent, 260 min",3.2%
same,"Relative ATPase Activity, slope det/slope lysate",0.05 percent detergent,0.984
same,Slope (log percent ATP remaining vs time in minutes),0.05 percent detergent,−0.0055
same,Average Relative Light Unit Values,"0.1% detergent, 5 min",6422.34 rlu
same,Percent ATP Remaining,"0.1% detergent, 5 min",100%
same,Average Relative Light Unit Values,"0.1% detergent, 75 min",3730.44 rlu
same,Percent ATP Remaining,"0.1% detergent, 75 min",57.9%
same,Average Relative Light Unit Values,"0.1% detergent, 169 min",1627.81 rlu
same,Percent ATP Remaining,"0.1% detergent, 169 min",25.3%
same,Average Relative Light Unit Values,"0.1% detergent, 222 min",1028.42 rlu
same,Percent ATP Remaining,"0.1% detergent, 222 min",16.0%
same,Average Relative Light Unit Values,"0.1% detergent, 260 min",669.31 rlu
same,Percent ATP Remaining,"0.1% detergent, 260 min",10.4%
same,"Relative ATPase Activity, slope det/slope lysate",0.10 percent detergent,0.684
same,Slope (log percent ATP remaining vs time in minutes),0.10 percent detergent,−0.0038
same,Average Relative Light Unit Values,"0.5% detergent, 5 min",3189.56 rlu
same,Percent ATP Remaining,"0.5% detergent, 5 min",100%
same,Average Relative Light Unit Values,"0.5% detergent, 75 min",2715.45 rlu
same,Percent ATP Remaining,"0.5% detergent, 75 min",85.1%
same,Average Relative Light Unit Values,"0.5% detergent, 169 min",2268.77 rlu
same,Percent ATP Remaining,"0.5% detergent, 169 min",71.1%
same,Average Relative Light Unit Values,"0.5% detergent, 222 min",2105.38 rlu
same,Percent ATP Remaining,"0.5% detergent, 222 min",66.0%
same,Average Relative Light Unit Values,"0.5% detergent, 260 min",1845.36 rlu
same,Percent ATP Remaining,"0.5% detergent, 260 min",57.9%
same,"Relative ATPase Activity, slope det/slope lysate",0.50 percent detergent,0.158
same,Slope (log percent ATP remaining vs time in minutes),0.50 percent detergent,−0.0009
same,Average Relative Light Unit Values,"1.0% detergent, 5 min",3.98 rlu
same,Average Relative Light Unit Values,"1.0% detergent, 75 min",3.63 rlu
same,Average Relative Light Unit Values,"1.0% detergent, 169 min",3.63 rlu
same,Average Relative Light Unit Values,"1.0% detergent, 222 min",3.15 rlu
same,Average Relative Light Unit Values,"1.0% detergent, 260 min",3.24 rlu
same,Average Relative Light Unit Values,[2],5962.61 rlu
same,Percent ATP Remaining,[2],100.00%
same,Average Relative Light Unit Values,[3],1694.47 rlu
same,Percent ATP Remaining,[3],28.42%
same,Average Relative Light Unit Values,[4],368.11 rlu
same,Percent ATP Remaining,[4],6.17%
same,Average Relative Light Unit Values,[5],241.05 rlu
same,Percent ATP Remaining,[5],4.04%
same,Average Relative Light Unit Values,[6],135.25 rlu
same,Percent ATP Remaining,[6],2.27%
same,times more ATP present in the sample after four hours when the detergent was present than when it was absent,"SDS 0.05%, deoxycholate 0.5% and 0.1%",about three to about twenty
same,concentrations which resulted in a 25% or greater decrease in the relative ATPase activity,,≥ 0.1%

# From patent US20030104507A1, “Method for detection of ATP” (priority 2001, published 2003)
